Test system: patients with relapsed or refractory AML
Assay: Open label, multicenter, non-comparative phase 2 clinical study of tipifarnib with gene expression profiling
Type: in vivo, human
Protocol: The current study was part of an open label, multicenter, non-comparative phase 2 clinical study in which patients with relapsed or refractory AML (Harousseau et al. (2003)) were treated with tipifarnib at a starting oral dose of 600 mg bid for the first 21 consecutive days of each 28-day cycle. Patients were enrolled into 2 cohorts, those with relapsed AML and those with refractory AML. A total of 252 patients (135 relapsed and 117 refractory) were treated. Eighty patients chose to provide bone marrow samples for RNA microarray analysis, for which a separate informed consent was required. […] Complete remission with incomplete platelet recovery was defined similarly, except for a platelet count less than 100,000/µL sufficient to ensure transfusion independence. Partial remission was defined as at least a 50% decrease in bone marrow blasts with partial neutrophil (>500/µL) and platelet count (>50,000/µL) recovery. Response had to be confirmed at least 4 weeks after first documentation.
The current study was an open label, multicenter, non-comparative Phase 2 study investigating the efficacy and safety of farnesyl transferase inhibition with tipifarnib administered as a single agent, at a starting oral dose of 600 mg b.i.d. for the first 21 days of each 28 day cycle in AML. Subjects were enrolled into two cohorts, those with relapsed AML and those with refractory AML. A total of 252 patients (135 relapsed and 117 refractory) were treated.

Q: What does the source list for `Cn1cncc1[C@@](N)(c1ccc(Cl)cc1)c1ccc2c(c1)c(-c1cccc(Cl)c1)cc(=O)n2C` [tipifarnib]?
A: response rate (current patient population (10/54), stable disease patients excluded): 18%; response rate (entire group of 58 profiled patients (14/58), response includes objective response, hematological response or stable disease): 24%; response rate (patients with low expression of AKAP13 (8/26), stable disease patients excluded): 31%; response rate (patients with low expression of the AKAP13 gene (13/30), LOOCV, 58 samples): 43%; response rate (patients with the 3-gene signature (AHR, AKAP13, MINA53) (12/25), LOOCV): 48%

— patent EP1612281A2, “Methods for assessing patients with acute myeloid leukemia” (Veridex, LLC, priority 2004, dated 2006)
